Experimental data from patent US11806342B2, “Diiodohydroxyquinoline for the treatment of clostridium difficile infection” (Purdue Research Foundation, priority 2019, dated 2023).

Columns and labels:
[1] = test system: Bacteroides fragilis HM-711; assay: MIC against normal gut microflora, broth microdilution; format: cell-based; settings: HM711; Bacteroides fragilis HM-711; read-out: MIC
Description: (§1) In vitro antimicrobial evaluation of diiodohydroxyquinoline against normal microflora. The broth microdilution assay was utilized to determine the MICs of DIHQ and control antibiotics against commensal organisms that compose he human gut microflora, as described elsewhere. A bacterial solution equivalent to 0.5 McFarland standard was prepared and diluted in BHIS broth (for Bifidobacterium and Bacteroides) or in MRS broth (for Lactobacillus) to achieve a bacterial concentration of about 5×10^5 CFU/mL. Then, drugs were added and serially diluted along the plates.

[2] = test system: Bifidobacterium angulatum HM-1189; assay: as above; format: cell-based; settings: HM1189; Bifidobacterium angulatum HM-1189; read-out: MIC
Description: as §1

[3] = test system: Bifidobacterium breve HM-1120; assay: as above; format: cell-based; settings: HM1120; Bifidobacterium breve HM-1120; read-out: MIC
Description: as §1

[4] = test system: Bacteroides dorei HM-719; assay: as above; format: cell-based; settings: Phocaeicola dorei, HM719; Bacteroides dorei HM-719; read-out: MIC
Description: as §1

[5] = test system: Lactobacillus casei ATCC 334; assay: as above; format: cell-based; settings: Lacticaseibacillus casei, ATCC334; Lactobacillus casei ATCC 334; read-out: MIC
Description: as §1

[6] = test system: C. difficile NR-49286; assay: MIC and MBC, broth microdilution; format: cell-based, Clostridium difficile; settings: Clostridioides difficile, NR49286, C. difficile NR-49286
Description: (§2) MIC50 and MIC90 are the minimum concentration of each agent that inhibited growth of 50% and 90% of the tested isolates, respectively. The minimum bactericidal concentration (MBC) of these drugs was tested by plating 5 μL from wells with no growth onto BHIS agar plates. The MBC was categorized as the lowest concentration that reduced bacterial growth by 99.9% MIC50 and MIC90 are the minimum concentration of each agent that inhibited the growth of 50% and 90% of the tested isolates, respectively. The minimum bactericidal concentration (MBC) of these drugs was tested by plating 5 μL from wells with no growth onto BHIS agar plates. The MBC was categorized as the lowest concentration that reduced bacterial growth by 99.9% [29-31].

[7] = test system: C. difficile P7; assay: MIC and MBC, broth microdilution; format: cell-based, Clostridium difficile; settings: Clostridioides difficile, C. difficile P7
Description: as §2

[8] = test system: C. difficile P1; assay: MIC and MBC, broth microdilution; format: cell-based, Clostridium difficile; settings: Clostridioides difficile, C. difficile P1
Description: as §2

[9] = test system: C. difficile P13; assay: MIC and MBC, broth microdilution; format: cell-based, Clostridium difficile; settings: Clostridioides difficile, C. difficile P13; for MBC: read-out: MBC
Description: as §2

[10] = test system: C. difficile ATCC 43598; assay: MIC and MBC, broth microdilution; format: cell-based, Clostridium difficile; settings: Clostridioides difficile, ATCC43598, C. difficile ATCC 43598
Description: as §2

[11] = test system: C. difficile ATCC 700057; assay: MIC and MBC, broth microdilution; format: cell-based, Clostridium difficile; settings: Clostridioides difficile, ATCC700057, C. difficile ATCC 700057
Description: as §2

[12] = test system: C. difficile P11; assay: MIC and MBC, broth microdilution; format: cell-based, Clostridium difficile; settings: Clostridioides difficile, C. difficile P11; for MBC: read-out: MBC
Description: as §2

[13] = test system: C. difficile NR-49277; assay: MIC and MBC, broth microdilution; format: cell-based, Clostridium difficile; settings: Clostridioides difficile, NR49277, C. difficile NR-49277
Description: as §2

[14] = test system: C. difficile P2; assay: MIC and MBC, broth microdilution; format: cell-based, Clostridium difficile; settings: Clostridioides difficile, C. difficile P2; for MBC: read-out: MBC
Description: as §2

[15] = test system: C. difficile NR-49290; assay: MIC and MBC, broth microdilution; format: cell-based, Clostridium difficile; settings: Clostridioides difficile, NR49290, C. difficile NR-49290; for MBC: read-out: MBC
Description: as §2

[16] = test system: C. difficile I4; assay: MIC and MBC, broth microdilution; format: cell-based, Clostridium difficile; settings: Clostridioides difficile, C. difficile I4
Description: as §2

[17] = test system: C. difficile P24; assay: MIC and MBC, broth microdilution; format: cell-based, Clostridium difficile; settings: Clostridioides difficile, C. difficile P24; for MBC: read-out: MBC
Description: as §2

[18] = test system: C. difficile ATCC BAA-1870; assay: MIC and MBC, broth microdilution; format: cell-based, Clostridium difficile; settings: Clostridioides difficile, ATCCBAA1870, C. difficile ATCC BAA-1870
Description: as §2

[19] = test system: C. difficile I1; assay: MIC and MBC, broth microdilution; format: cell-based, Clostridium difficile; settings: Clostridioides difficile, C. difficile I1
Description: as §2

[20] = test system: C. difficile I2; assay: MIC and MBC, broth microdilution; format: cell-based, Clostridium difficile; settings: Clostridioides difficile, C. difficile I2
Description: as §2

[21] = test system: C. difficile ATCC 9689; assay: MIC and MBC, broth microdilution; format: cell-based, Clostridium difficile; settings: Clostridioides difficile, ATCC9689, C. difficile ATCC 9689; for MBC: read-out: MBC
Description: as §2

[22] = test system: C. difficile NR-49284; assay: MIC and MBC, broth microdilution; format: cell-based, Clostridium difficile; settings: Clostridioides difficile, NR49284, C. difficile NR-49284
Description: as §2

[23] = test system: C. difficile NR-49281; assay: MIC and MBC, broth microdilution; format: cell-based, Clostridium difficile; settings: Clostridioides difficile, NR49281, C. difficile NR-49281
Description: as §2

[24] = test system: C. difficile HM-89; assay: MIC and MBC, broth microdilution; format: cell-based, Clostridium difficile; settings: Clostridioides difficile, HM89, C. difficile HM-89
Description: as §2

[25] = test system: C. difficile P8; assay: MIC and MBC, broth microdilution; format: cell-based, Clostridium difficile; settings: Clostridioides difficile, C. difficile P8
Description: as §2

[26] = test system: C. difficile NR-49277; assay: Time kill kinetics assay; format: cell-based, Clostridium difficile; settings: C. difficile NR-49277, 5×MIC, 37° C.
Description: (§3) Time kill kinetics assay. In order to examine the killing kinetics of DIHQ, a time kill kinetics assay was performed against Clostridium difficile ATCC BAA 1870 and C. difficile NR-49277 as described previously. […] Aliquots were collected from each treatment after 0, 4, 6, 8, 12, and 24 hours of incubation at 37° C. and subsequently serially diluted and plated for viable CFU/mL determination.

[27] = test system: C. difficile ATCC BAA-1870; assay: Time kill kinetics assay; format: cell-based, Clostridium difficile; settings: C. difficile ATCC BAA-1870, 5×MIC, 37° C.
Description: as §3

CCc1c(Cl)c(O)c(Cl)c(O)c1C(=O)O[C@H]1[C@H](O)[C@H](OC)[C@H](OC/C2=C\C=C\C[C@H](O)/C(C)=C/[C@H](CC)[C@@H](O[C@@H]3OC(C)(C)[C@@H](OC(=O)C(C)C)[C@H](O)[C@@H]3O)/C(C)=C/C(C)=C/C[C@@H]([C@@H](C)O)OC2=O)O[C@@H]1C [Fidaxomicin, fidaxomicin]
0.015 µg/mL: MBC ([6]; read-out: MBC) | MBC [9] | MIC ([9]; read-out: MIC) | MBC ([10]; read-out: MBC) | MIC ([10]; read-out: MIC) | MBC [15] | MIC ([15]; read-out: MIC) | MBC ([16]; read-out: MBC) | MIC ([16]; read-out: MIC) | MIC ([17]; read-out: MIC) | MBC ([22]; read-out: MBC) | MIC ([22]; read-out: MIC) | MBC ([25]; read-out: MBC) | MIC ([25]; read-out: MIC)
0.03 µg/mL: MBC [12] | MIC ([12]; read-out: MIC) | MBC ([13]; read-out: MBC) | MIC ([13]; read-out: MIC) | MBC [14] | MIC ([14]; read-out: MIC) | MBC [17] | MBC ([18]; read-out: MBC) | MIC ([18]; read-out: MIC) | MBC [21] | MIC ([21]; read-out: MIC) | MBC ([24]; read-out: MBC) | MIC ([24]; read-out: MIC)
0.003 µg/mL: MIC ([8]; read-out: MIC)
128 µg/mL: MIC [4]
≤ 1 µg/mL: MIC [2] | MIC [3]
> 128 µg/mL: MIC [1] | MIC [5]
0.06 µg/mL: MBC ([7]; read-out: MBC) | MIC ([7]; read-out: MIC)
0.007 µg/mL: MIC ([6]; read-out: MIC) | MBC ([8]; read-out: MBC) | MBC ([11]; read-out: MBC) | MIC ([11]; read-out: MIC) | MBC ([19]; read-out: MBC) | MIC ([19]; read-out: MIC) | MBC ([20]; read-out: MBC) | MIC ([20]; read-out: MIC) | MBC ([23]; read-out: MBC) | MIC ([23]; read-out: MIC)

Cc1ncc([N+](=O)[O-])n1CCO [Metronidazole, metronidazole]
12 hours: time required to generate a 3-log10 reduction in CFU/mL [26] | time required to generate a 3-log10 reduction in CFU/mL [27]
16 µg/mL: MIC [5]
0.25 µg/mL: MBC [9] | MBC [12] | MBC [14] | MBC [15] | MBC [17] | MBC [21]
≤ 1 µg/mL: MIC [1] | MIC [2] | MIC [3] | MIC [4]
